Drawing on patent US6608027B1, “Macrocyclic peptides active against the hepatitis C virus” (Boehringer Ingelheim (Canada) Ltd, priority 1999, dated 2003), this text covers IC50 and EC50 for 28 molecules.

The IC50 is the concentration needed to halve the response being measured. What is called EC50 is the midpoint of the concentration-response curve.

Bounds are passed on as bounds.

The target of the first test is T1, His-NS3-NS4AFL (full-length NS3-NS4A protein complex) (Hepatitis C virus genotype 1b, UniProt P26663).
T1 construct: made in house; host or cells: Sf21 insect cells, recombinant baculovirus (Bac-to-Bac, pFastBac HTa)
T1 sequence (P26663 1658-1711): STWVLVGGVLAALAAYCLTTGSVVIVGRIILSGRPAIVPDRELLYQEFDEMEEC
T1 sequence (P26663 1027-1657): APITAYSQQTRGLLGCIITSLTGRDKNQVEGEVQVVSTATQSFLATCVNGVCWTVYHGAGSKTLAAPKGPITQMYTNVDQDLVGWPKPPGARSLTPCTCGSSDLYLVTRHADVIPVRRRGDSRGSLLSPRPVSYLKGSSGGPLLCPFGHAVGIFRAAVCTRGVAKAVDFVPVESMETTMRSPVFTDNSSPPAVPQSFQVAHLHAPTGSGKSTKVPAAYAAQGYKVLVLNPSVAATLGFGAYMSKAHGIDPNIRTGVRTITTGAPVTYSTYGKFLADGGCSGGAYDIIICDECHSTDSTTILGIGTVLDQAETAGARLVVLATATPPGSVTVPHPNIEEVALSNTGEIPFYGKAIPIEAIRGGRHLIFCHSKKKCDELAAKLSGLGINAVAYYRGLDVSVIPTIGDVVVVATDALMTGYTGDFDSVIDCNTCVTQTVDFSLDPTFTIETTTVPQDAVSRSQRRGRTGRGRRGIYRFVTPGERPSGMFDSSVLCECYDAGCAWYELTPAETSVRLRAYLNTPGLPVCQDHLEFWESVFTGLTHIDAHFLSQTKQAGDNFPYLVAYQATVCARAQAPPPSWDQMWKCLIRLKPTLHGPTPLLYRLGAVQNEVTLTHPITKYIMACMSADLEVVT
As to the kind of experiment: Full-length NS3-NS4A heterodimer protein fluorogenic assay. Format: biochemical, HCV genotype 1b.
Details: not given
An excerpt:
The NS2-NS5B-3′non coding region was cloned by RT-PCR into the pCR®3 vector (Invitrogen) using RNA extracted from the serum of an HCV genotype 1b infected individual (provided by Dr. Bernard Willems, Hôpital St-Luc, Montréal, Québec, Canada). The NS3-NS4A region (NS3-NS4AFL) was then subcloned by PCR into the pFastBac™ HTa baculovirus expression vector (Gibco/BRL). The vector sequence includes a region encoding a 28-residue N-terminal sequence which contains a hexahistidine tag. The Bac-to-Bac™ baculovirus expression system (Gibco/BRL) was used to produce the recombinant baculovirus. His-NS3-NS4AFL was expressed by infecting 10^6 Sf21 cells/mL with the recombinant baculovirus at a multiplicity of infection of 0.1-0.2 at 27°. Authentic auto-proteolysis occurs during expression to produce a non covalent and stable NS3-NS4A protein complex (referred to as full-length “FL”). The infected culture was harvested 48 to 64 h later by centrifugation at 4°. The cell pellet was homogenized in 50 mM NaPO4, pH 7.5, 40% glycerol (w/v), 2 mM β-mercaptoethanol, in presence of a cocktail of protease inhibitors. His-NS3-NS4AFL was then extracted from the cell lysate with 1.5% NP-40, 0.5% Triton X-100, 0.5M NaCl, and a DNase treatment. After ultracentrifugation, the soluble extract was diluted 4-fold and bound on a Pharmacia Hi-Trap Ni-chelating column. The His-NS3-NS4AFL was eluted in a >90% pure form (as judged by SDS-PAGE), using a 50 to 400 mM imidazole gradient. The His-NS3-NS4AFL was stored at −80° in 50 mM sodium phosphate, pH 7.5, 10% (w/v) glycerol, 0.5 M NaCl, 0.25 M imidazole, 0.1% NP-40. It was thawed on ice and diluted just prior to use.
The protease activity of His-NS3-NS4AFL was assayed in 50 mM Tris-HCl, pH 8.0, 0.25 M sodium citrate, 0.01% (w/v) n-dodecyl-β-D-maltoside, 1 mM TCEP. Five (5) μM of the internally quenched substrate anthranilyl-DDIVPAbu[C(O)—O]-AMY(3-NO2)TW-OH (SEQ. ID NO.: 1) in presence of various concentrations of inhibitor were incubated with 1.5 nM of His-NS3-NS4AFL for 45 min at 23°. […] The reaction was terminated with the addition of 1M MES, pH 5.8. Fluorescence of the N-terminal product was monitored on a Perkin-Elmer LS-50B fluorometer equipped with a 96-well plate reader (excitation wavelength: 325 nm, emission wavelength: 423 nm).
The % inhibition was calculated with the following equation:
100−[(fluoinh−fluoblank)/(fluoctl−fluoblank)×100]
A non-linear curve fit with the Hill model was applied to the inhibition-concentration data, and the 50% effective concentration (IC50) was calculated by the use of SAS software (Statistical Software System; SAS Institute, Inc. Cary, N.C.).
The molecule `COc1ccc2c(O[C@@H]3C[C@H]4C(=O)N[C@]5(C(=O)O)C[C@H]5/C=C\CCC(O)CC[C@H](NC(=O)OC(C)(C)C)C(=O)N4C3)cc(-c3ccccc3)nc2c1` (mixture of isomers) [Compound 217] came in with an IC50 below 100 nM.
The same measure, in the same setting: the same measure for `COc1ccc2c(O[C@@H]3C[C@H]4C(=O)N[C@]5(C(=O)O)C[C@H]5/C=C\CCCCCC(O)C(=O)N4C3)ccnc2c1` (single isomer, unassigned) [Compound 213]: 100 to 1000 nM.
`CC(C)(C)OC(=O)N[C@H]1CCC/C=C/CC[C@@H]2C[C@@]2(C(=O)O)NC(=O)[C@@H]2CC(Oc3ccnc4ccccc34)CN2C1=O` (stereo partly shown) [Compound 202] showed an IC50 of 100 to 1000 nM.
The same measure, in the same setting: in the case of `CC(=O)N[C@H]1CCC/C=C/CC[C@@H]2C[C@@]2(C(=O)O)NC(=O)[C@@H]2CC(Oc3ccnc4ccccc34)CN2C1=O` (stereo partly shown) [Compound 203] it was above 1000 nM; in that of `CC(C)(C)OC(=O)N[C@H]1CCCC(O)C(O)CC[C@@H]2C[C@@]2(C(=O)O)NC(=O)[C@@H]2CC(Oc3ccnc4ccccc34)CN2C1=O` (stereo partly shown) [Compound 205], 100 to 1000 nM.
With `CC(C)(C)OC(=O)N[C@H]1CCCCC/C=C\[C@@H]2C[C@@]2(C(=O)O)NC(=O)[C@@H]2C[C@@H](Oc3ccnc4ccccc34)CN2C1=O` [Compound 206], the half-inhibitory concentration (IC50) was below 100 nM.
On the same count and under the same terms, the same measure for `COc1ccc2c(O[C@@H]3C[C@H]4C(=O)N[C@]5(C(=O)O)C[C@H]5/C=C\CCCCC[C@H](NC(=O)OC(C)(C)C)C(=O)N4C3)ccnc2c1` [Compound 207]: below 100 nM; for `COc1ccc2c(O[C@@H]3C[C@H]4C(=O)N[C@]5(C(=O)O)C[C@H]5/C=C\CCCCC[C@H](NC(=O)OC(C)(C)C)C(=O)N4C3)cc(-c3ccccc3)nc2c1` [Compound 208]: below 100 nM.
In the case of `COc1ccc2c(O[C@@H]3C[C@H]4C(=O)N[C@]5(C(=O)O)CC5/C=C\CCCCC[C@H](NC(=O)NC(C)(C)C)C(=O)N4C3)cc(-c3ccccc3)nc2c1` (stereo partly shown) [Compound 209], the IC50 is below 100 nM.
Same read-out and setting: the same measure for `COc1ccc2c(O[C@@H]3C[C@H]4C(=O)N[C@]5(C(=O)O)C[C@H]5/C=C\CCCCC[C@H](N)C(=O)N4C3)cc(-c3ccccc3)nc2c1` [Compound 211]: below 100 nM; for `COc1ccc2c(O[C@@H]3C[C@H]4C(=O)N[C@]5(C(=O)O)C[C@H]5CCCCCCC[C@H](NC(=O)OC(C)(C)C)C(=O)N4C3)cc(-c3ccccc3)nc2c1` [Compound 215]: below 100 nM; for `COc1ccc2c(O[C@@H]3C[C@H]4C(=O)N[C@]5(C(=O)O)C[C@H]5CCCCCCC[C@H](NC(C)=O)C(=O)N4C3)cc(-c3ccccc3)nc2c1` [Compound 219]: below 100 nM.
The same measure, in the same setting: in the case of `COc1ccc2c(O[C@@H]3C[C@H]4C(=O)N[C@]5(C(=O)O)C[C@@H]5/C=C\CCCCC[C@H](NC(=O)OC(C)(C)C)C(=O)N4C3)cc(-c3nccs3)nc2c1` [Compound 220] it was below 100 nM.

Staying with this test, now noted: fluorogenic assay of Example 48; no asterisk; read-out: enzyme activity (IC50 grade).
For the molecule `CC(C)(C)OC(=O)N[C@H]1CCCCCC=CCCC2CC2(C(=O)O)NC(=O)[C@@H]2C[C@@H](Oc3ccnc4ccccc34)CN2C1=O` (single isomer, unassigned) [Compound 301], the IC50 lay within 100 to 1000 nM.
Still for that read-out and setting: the same measure for `COc1ccc2c(O[C@@H]3C[C@H]4C(=O)N[C@]5(C(=O)O)C[C@@H]5/C=C/CCC[C@H](NC(=O)OC(C)(C)C)C(=O)N4C3)cc(-c3ccccc3)nc2c1` [Compound 302]: above 1000 nM; for `COc1ccc2c(O[C@@H]3C[C@H]4C(=O)N[C@]5(C(=O)O)C[C@@H]5/C=C/COCCC[C@H](NC(=O)OC(C)(C)C)C(=O)N4C3)cc(-c3ccccc3)nc2c1` [Compound 303]: 100 to 1000 nM.
Consider `COc1ccc2c(O[C@@H]3C[C@H]4C(=O)N[C@]5(C(=O)O)C[C@H]5C=CCCCC=CC[C@H](NC(=O)OC(C)(C)C)C(=O)N4C3)cc(-c3ccccc3)nc2c1` [Compound 304], for which the IC50 was below 100 nM.

For another test, the target named is T2, NS3 protease (Hepatitis C virus genotype 1b, UniProt P26663).
T2 construct: expressed in transfected cells; host or cells: Huh-7 human hepatoma cells, transient co-transfection (CMV promoter)
T2 sequence (P26663 1658-1711): as the sequence (P26663 1658-1711) above
T2 sequence (P26663 1027-1657): as the sequence (P26663 1027-1657) above
In words: NS3 protease cell-based assay (SEAP reporter, Huh-7 cells). Details: species or system HCV. The conditions noted are these: SEAP activity, 24-hour incubation, read-out: cell. act. (EC50 code). An excerpt:
This assay is done with Huh-7 cells, a human cell line derived from a hepatoma, co-transfected with 2 DNA constructs: one (called NS3) expressing part of the HCV non-structural polyprotein fused to the tTA protein through an NS5A-NS5B cleavage site in the following order: NS3-NS4A-NS4B-NS5A-(NS5B)tTA where (NS5B) represents the 6 first amino acids of NS5
B. This polyprotein is expressed under the control of the CMV promoter, the other (called SEAP) expressing the reporter protein, secreted alkaline phosphatase (SEAP), under the regulation of a tTA-responsive promoter. The first construct leads to the expression of a polyprotein from which the different mature proteins are released through cleavage by the NS3 protease. It is believed that the mature viral proteins forms a complex at the membrane of the endoplasmic reticulum. tTA is a fusion protein, described by Gossen and Bujard (Proc. Natl. Acad. Sci. USA 89 (1992): 5547-5551), which contains a DNA-binding domain and a transcriptional activator. Release of the tTA protein requires an NS3-dependent cleavage at the NS5A-NS5B cleavage site between NS5A and itself. This last cleavage allows tTA to migrate to the nucleus and transactivate the SEAP gene. Therefore, reduction of NS3 proteolytic activity leads to confinement of tTA to the cytoplasm and concomitant decrease in SEAP activity.
To control for cellular activities other than inhibition of NS3 protease which are due to the compound, a parallel co-transfection is done with a construct expressing tTA alone and the same reporter construct such that SEAP activity is independent of the NS3 protease.
Protocol of the assay: Huh-7 cells, grown in CHO-SFMII (Life Technologies)+10% FCS (fetal calf serum) were co-transfected with the two DNA constructs in the following proportions: 7 μg NS3+500 ng SEAP+[…] FuGENE (Boehringer Mannheim) per 4×10^6 Huh-7 cells. After 5 hours at 37° C., the cells were washed, trypsinized and plated (at 80 000 cells/well) in 96-well plates containing a range of concentrations of the compounds to be tested. After a 24-hour incubation period, the SEAP activity in the medium was measured with the Phospha-Light kit (Tropix).
Analysis of the percent inhibition of SEAP activity with respect to compound concentration was performed with the SAS software to obtain the EC50.
For the molecule `COc1ccc2c(O[C@@H]3C[C@H]4C(=O)N[C@]5(C(=O)O)CC5/C=C\CCCCC[C@H](NC(=O)OC5CCCC5)C(=O)N4C3)cc(-c3csc(NC(C)C)n3)nc2c1` (stereo partly shown) [Compound 822], the EC50 is at most 1000 nM.
In the case of `COc1ccc2c(O[C@@H]3C[C@H]4C(=O)N[C@]5(C(=O)O)CC5/C=C\CCCCC[C@H](NC(=O)OC5CCCC5)C(=O)N4C3)cc(-c3csc(NC4CC4)n3)nc2c1` (stereo partly shown) [Compound 825], the EC50 is at most 1000 nM.
Same read-out and setting: in the case of `COc1ccc2c(O[C@@H]3C[C@H]4C(=O)N[C@]5(C(=O)O)CC5/C=C\CCCCC[C@H](NC(=O)OC5CCCC5)C(=O)N4C3)cc(-c3csc(NC4CCC4)n3)nc2c1` (stereo partly shown) [Compound 826] it was at most 1000 nM; in that of `COc1ccc2c(O[C@@H]3C[C@H]4C(=O)N[C@]5(C(=O)O)CC5/C=C\CCCCC[C@H](NC(=O)OC5CCCC5)C(=O)N4C3)cc(-c3csc(NC4CCCC4)n3)nc2c1` (stereo partly shown) [Compound 827], at most 1000 nM.
Same read-out and setting: in the case of `COc1ccc2c(O[C@@H]3C[C@H]4C(=O)N[C@]5(C(=O)O)CC5/C=C\CCCCC[C@H](NC(=O)OC5CCCC5)C(=O)N4C3)cc(-c3csc(NC4CCCCC4)n3)nc2c1` (stereo partly shown) [Compound 828] it was at most 1000 nM.
On the same count and under the same terms, the same measure for `COc1ccc2c(O[C@@H]3C[C@H]4C(=O)N[C@]5(C(=O)O)CC5CCCCCCC[C@H](NC(=O)OC5CCCC5)C(=O)N4C3)cc(-c3nc(C(C)C)cs3)nc2c1` (stereo partly shown) [Compound 906]: at most 1000 nM.
Regarding `COc1ccc2c(O[C@@H]3C[C@H]4C(=O)N[C@]5(C(=O)O)CC5CCCCCCC[C@H](NC(=O)OC5CCCC5)C(=O)N4C3)cc(-n3cccc3)nc2c1` (stereo partly shown) [Compound 907], the EC50 is at most 1000 nM.
The same measure, in the same setting: in the case of `COc1ccc2c(O[C@@H]3C[C@H]4C(=O)N[C@]5(C(=O)O)CC5CCCCCCC[C@H](NC(=O)OC5CCCC5)C(=O)N4C3)cc(-c3csc(N)n3)nc2c1` (stereo partly shown) [Compound 908] it was at most 1000 nM.
Still for that read-out and setting: in the case of `COc1ccc2c(O[C@@H]3C[C@H]4C(=O)N[C@]5(C(=O)O)CC5CCCCCCC[C@H](NC(=O)OC5CCCC5)C(=O)N4C3)cc(-c3csc(NC(C)=O)n3)nc2c1` (stereo partly shown) [Compound 909] it was at most 1000 nM.
Turning to `CCNc1nc(-c2cc(O[C@@H]3C[C@H]4C(=O)N[C@]5(C(=O)O)CC5CCCCCCC[C@H](NC(=O)OC5CCCC5)C(=O)N4C3)c3ccc(OC)cc3n2)cs1` (stereo partly shown) [Compound 910], the EC50 is at most 1000 nM.
Still for that read-out and setting: the same measure for `COc1ccc2c(O[C@@H]3C[C@H]4C(=O)N[C@]5(C(=O)O)CC5CCCCCCC[C@H](NC(=O)OC5CCCC5)C(=O)N4C3)cc(-c3csc(NC(C)C)n3)nc2c1` (stereo partly shown) [Compound 911]: at most 1000 nM.
